How the values were obtained:
HeLa = assay: Selectivity index, ratio of IC50 for HDAC1/HDAC2 in human HeLa cells nuclear extracts to IC50 for recombinant N-GST-tagged HDAC6 (unknown origin); assay type: cell-based
[1] = target: Histone deacetylase (HDAC1 and HDAC2) (Homo sapiens) (UniProt Q13547+Q92769); assay: Inhibition of HDAC1/HDAC2 in human HeLa cells assessed as reduction in acetylated histone levels at 20 uM incubated for 24 hrs by immunofluorescence assay; assay type: cell-based
[2] = target: T1, Protein deacetylase HDAC6 (Homo sapiens, UniProt Q9UBN7); assay: Inhibition of recombinant N-GST-tagged HDAC6 (unknown origin) assessed as reduction in deacetylation of Ac-Arg-Gly-Lys(Ac)-AMC substrate by fluorescence assay
T1 sequence (Q9UBN7 whole entry): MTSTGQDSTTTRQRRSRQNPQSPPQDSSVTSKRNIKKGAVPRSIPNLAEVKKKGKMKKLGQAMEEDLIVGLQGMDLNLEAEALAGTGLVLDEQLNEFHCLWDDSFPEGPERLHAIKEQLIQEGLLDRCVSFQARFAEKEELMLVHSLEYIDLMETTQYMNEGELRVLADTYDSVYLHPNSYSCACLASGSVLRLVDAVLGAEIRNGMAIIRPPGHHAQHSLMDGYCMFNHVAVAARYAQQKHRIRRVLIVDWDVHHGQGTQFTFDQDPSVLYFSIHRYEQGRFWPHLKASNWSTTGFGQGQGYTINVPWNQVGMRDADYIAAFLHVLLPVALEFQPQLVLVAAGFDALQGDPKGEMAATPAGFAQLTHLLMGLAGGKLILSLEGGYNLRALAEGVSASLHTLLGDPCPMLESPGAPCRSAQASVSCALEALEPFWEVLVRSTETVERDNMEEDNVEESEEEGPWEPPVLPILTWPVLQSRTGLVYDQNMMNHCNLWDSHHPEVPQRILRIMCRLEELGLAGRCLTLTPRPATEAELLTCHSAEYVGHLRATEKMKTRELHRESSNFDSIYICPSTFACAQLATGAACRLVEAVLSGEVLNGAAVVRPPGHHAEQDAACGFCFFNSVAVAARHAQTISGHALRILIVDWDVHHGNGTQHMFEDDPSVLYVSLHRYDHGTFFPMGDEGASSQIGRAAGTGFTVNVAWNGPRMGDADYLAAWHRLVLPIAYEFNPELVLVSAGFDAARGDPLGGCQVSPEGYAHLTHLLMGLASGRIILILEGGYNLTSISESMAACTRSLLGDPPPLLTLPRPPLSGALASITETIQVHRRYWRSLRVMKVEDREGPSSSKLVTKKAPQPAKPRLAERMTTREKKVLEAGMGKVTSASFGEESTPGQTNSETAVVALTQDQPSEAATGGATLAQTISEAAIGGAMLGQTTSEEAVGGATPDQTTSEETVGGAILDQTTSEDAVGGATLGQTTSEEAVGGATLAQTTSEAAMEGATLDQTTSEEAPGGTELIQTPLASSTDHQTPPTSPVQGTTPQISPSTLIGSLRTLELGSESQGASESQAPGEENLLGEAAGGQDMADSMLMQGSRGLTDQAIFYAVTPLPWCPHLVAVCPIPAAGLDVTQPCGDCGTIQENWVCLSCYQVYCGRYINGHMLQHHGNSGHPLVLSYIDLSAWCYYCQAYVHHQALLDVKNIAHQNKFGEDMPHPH

[3] = target: T1, Protein deacetylase HDAC6; assay: Inhibition of HDAC6 in human HeLa cells assessed as reduction in K40 hyperacetylation of alpha-tubulin incubated for 6 hrs by immunofluorescence assay; assay type: cell-based
[4] = Aqueous solubility in pH 6.8 buffer solution; assay type: physicochemical
Histone deacetylase 8 = target: T2, Histone deacetylase 8 (Homo sapiens, UniProt Q9BY41); assay: Inhibition of full length C-terminal 6x-His tagged human HDAC8 using Arg-His-Lys(Ac)-Lys(Ac) substrate incubated for 2 hrs by fluorescence assay
T2 sequence (Q9BY41 whole entry): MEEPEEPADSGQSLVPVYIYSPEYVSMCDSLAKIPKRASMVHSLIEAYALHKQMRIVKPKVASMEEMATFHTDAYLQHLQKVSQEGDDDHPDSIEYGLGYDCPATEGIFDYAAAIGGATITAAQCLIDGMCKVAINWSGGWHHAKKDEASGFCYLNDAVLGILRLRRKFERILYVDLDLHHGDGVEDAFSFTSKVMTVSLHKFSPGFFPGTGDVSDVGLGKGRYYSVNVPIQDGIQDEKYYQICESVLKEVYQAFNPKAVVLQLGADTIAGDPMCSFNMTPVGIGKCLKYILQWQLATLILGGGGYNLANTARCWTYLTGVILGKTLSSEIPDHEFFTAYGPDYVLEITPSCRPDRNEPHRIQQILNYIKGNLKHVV

[5] = Permeability in human Caco2 cells at pH 7.4; assay type: ADME, cell-based; settings: Caco-2, pH 7.4, read-out: permeability
Histone deacetylase 11 = target: T3, Histone deacetylase 11 (Homo sapiens, UniProt Q96DB2); assay: Inhibition of full length N-terminal GST-tagged human HDAC11 using Arg-His-Lys-Lys(Ac) substrate incubated for 2 hrs by fluorescence assay
T3 sequence (Q96DB2 whole entry): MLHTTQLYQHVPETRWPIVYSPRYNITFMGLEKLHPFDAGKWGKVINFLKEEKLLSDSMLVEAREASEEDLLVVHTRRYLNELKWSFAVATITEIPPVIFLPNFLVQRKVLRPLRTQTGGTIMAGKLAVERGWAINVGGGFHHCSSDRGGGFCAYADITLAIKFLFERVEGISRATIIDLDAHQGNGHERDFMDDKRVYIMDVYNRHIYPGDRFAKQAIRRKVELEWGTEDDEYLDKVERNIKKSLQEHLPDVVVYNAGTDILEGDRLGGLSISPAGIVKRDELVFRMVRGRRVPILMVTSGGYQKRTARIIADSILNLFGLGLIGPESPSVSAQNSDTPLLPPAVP

[6] = target: T4, Polyamine deacetylase HDAC10 (Homo sapiens, UniProt Q969S8); assay: Inhibition of N-terminal GST-tagged human HDAC10 (1 to 481 residues) using Arg-His-Lys-Lys(Ac) substrate incubated for 2 hrs by fluorescence assay
T4 sequence (Q969S8 whole entry): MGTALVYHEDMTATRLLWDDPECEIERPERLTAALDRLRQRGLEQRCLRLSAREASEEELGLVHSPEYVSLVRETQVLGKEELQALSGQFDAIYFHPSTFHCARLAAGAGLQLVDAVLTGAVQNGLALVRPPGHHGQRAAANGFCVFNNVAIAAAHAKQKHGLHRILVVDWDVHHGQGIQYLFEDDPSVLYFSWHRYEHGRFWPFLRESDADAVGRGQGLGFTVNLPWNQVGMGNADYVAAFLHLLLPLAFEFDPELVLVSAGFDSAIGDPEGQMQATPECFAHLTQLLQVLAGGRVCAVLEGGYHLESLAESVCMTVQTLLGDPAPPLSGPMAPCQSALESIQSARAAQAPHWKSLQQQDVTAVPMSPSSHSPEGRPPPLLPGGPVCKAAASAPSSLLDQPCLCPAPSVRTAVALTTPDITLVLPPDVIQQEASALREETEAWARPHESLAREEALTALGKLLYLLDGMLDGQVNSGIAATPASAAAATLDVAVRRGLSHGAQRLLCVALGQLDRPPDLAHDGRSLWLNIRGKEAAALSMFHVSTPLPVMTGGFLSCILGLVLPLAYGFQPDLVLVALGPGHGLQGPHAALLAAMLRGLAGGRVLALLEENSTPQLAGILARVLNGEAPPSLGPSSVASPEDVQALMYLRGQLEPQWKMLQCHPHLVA

Histone deacetylase 2 = Histone deacetylase 2 (Homo sapiens, UniProt Q92769)
Sequence of Histone deacetylase 2 (Q92769 whole entry): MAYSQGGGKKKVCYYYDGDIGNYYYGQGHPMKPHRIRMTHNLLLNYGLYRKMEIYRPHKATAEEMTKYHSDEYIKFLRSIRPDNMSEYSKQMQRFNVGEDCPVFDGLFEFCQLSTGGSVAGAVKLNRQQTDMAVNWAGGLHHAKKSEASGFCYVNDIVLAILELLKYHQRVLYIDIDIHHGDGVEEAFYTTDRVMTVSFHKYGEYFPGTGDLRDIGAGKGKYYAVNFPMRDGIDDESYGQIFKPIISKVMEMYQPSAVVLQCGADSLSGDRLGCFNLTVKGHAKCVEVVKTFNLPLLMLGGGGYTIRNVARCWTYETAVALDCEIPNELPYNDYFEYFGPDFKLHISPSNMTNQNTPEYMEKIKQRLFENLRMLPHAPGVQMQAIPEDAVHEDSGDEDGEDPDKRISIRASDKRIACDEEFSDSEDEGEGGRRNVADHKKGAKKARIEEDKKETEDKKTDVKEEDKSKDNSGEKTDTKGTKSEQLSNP

Histone deacetylase 4 = Histone deacetylase 4 (Homo sapiens, UniProt P56524)
Sequence of Histone deacetylase 4 (P56524 whole entry): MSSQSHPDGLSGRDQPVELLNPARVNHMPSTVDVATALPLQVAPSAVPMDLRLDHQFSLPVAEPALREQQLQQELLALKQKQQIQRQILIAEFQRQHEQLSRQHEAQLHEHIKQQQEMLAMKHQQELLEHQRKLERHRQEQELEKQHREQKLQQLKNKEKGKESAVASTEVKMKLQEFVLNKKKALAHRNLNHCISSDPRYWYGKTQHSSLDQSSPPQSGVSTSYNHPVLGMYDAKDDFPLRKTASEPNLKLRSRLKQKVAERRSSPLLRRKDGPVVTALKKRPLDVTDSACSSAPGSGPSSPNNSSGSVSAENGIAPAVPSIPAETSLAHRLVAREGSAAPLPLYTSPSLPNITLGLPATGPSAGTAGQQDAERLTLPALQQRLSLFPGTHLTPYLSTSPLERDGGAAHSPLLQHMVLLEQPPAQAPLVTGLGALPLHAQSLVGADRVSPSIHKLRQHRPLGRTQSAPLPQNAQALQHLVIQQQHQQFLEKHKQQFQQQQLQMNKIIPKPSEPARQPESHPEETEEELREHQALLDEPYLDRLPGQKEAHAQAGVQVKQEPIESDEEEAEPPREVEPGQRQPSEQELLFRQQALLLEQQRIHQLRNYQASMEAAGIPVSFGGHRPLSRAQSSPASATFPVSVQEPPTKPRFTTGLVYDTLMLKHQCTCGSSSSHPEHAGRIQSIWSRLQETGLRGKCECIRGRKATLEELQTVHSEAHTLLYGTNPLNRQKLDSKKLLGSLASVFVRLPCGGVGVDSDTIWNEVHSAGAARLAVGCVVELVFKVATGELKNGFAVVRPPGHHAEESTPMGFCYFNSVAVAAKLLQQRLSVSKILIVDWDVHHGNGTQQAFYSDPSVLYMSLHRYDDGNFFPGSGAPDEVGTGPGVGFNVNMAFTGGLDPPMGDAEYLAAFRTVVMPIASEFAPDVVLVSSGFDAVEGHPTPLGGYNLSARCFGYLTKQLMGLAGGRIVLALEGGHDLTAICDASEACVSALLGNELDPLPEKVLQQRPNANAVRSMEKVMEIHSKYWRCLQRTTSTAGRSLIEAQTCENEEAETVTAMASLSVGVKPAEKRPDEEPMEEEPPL

Histone deacetylase 1 = Histone deacetylase 1 (Homo sapiens, UniProt Q13547); assay: Inhibition of full length GST-tagged human HDAC1 using Arg-His-Lys-Lys(Ac) substrate incubated for 2 hrs by fluorescence assay
Sequence of Histone deacetylase 1 (Q13547 whole entry): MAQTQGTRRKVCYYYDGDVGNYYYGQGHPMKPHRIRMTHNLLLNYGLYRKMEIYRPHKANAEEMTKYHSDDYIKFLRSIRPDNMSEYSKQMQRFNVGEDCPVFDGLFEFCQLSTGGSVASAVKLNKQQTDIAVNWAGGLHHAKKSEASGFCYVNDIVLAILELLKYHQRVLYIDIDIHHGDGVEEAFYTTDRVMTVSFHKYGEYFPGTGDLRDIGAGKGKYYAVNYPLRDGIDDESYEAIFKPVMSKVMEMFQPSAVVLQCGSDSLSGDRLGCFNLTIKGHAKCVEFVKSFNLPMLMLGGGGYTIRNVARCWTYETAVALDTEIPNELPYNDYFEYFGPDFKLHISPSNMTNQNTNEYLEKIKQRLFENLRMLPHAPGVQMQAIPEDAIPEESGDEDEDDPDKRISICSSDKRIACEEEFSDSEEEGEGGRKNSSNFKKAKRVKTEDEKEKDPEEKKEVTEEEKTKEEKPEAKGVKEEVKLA

Histone deacetylase 3 = Histone deacetylase 3 (Homo sapiens, UniProt O15379); assay: Inhibition of full length C-terminal 6x-His tagged human HDAC3 using Arg-His-Lys-Lys(Ac) substrate incubated for 2 hrs by fluorescence assay
Sequence of Histone deacetylase 3 (O15379 whole entry): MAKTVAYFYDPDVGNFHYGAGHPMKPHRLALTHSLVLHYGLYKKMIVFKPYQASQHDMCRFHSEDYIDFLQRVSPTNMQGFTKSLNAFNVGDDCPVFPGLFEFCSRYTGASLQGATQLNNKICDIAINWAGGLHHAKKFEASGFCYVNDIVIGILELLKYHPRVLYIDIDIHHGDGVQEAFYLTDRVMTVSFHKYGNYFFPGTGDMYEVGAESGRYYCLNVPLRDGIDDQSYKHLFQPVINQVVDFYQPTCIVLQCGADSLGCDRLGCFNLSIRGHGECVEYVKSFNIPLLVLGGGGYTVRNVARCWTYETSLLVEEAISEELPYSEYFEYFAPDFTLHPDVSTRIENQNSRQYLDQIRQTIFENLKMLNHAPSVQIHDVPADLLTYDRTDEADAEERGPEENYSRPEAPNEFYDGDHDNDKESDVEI

Histone deacetylase 5 = Histone deacetylase 5 (Homo sapiens, UniProt Q9UQL6)
Sequence of Histone deacetylase 5 (Q9UQL6 whole entry): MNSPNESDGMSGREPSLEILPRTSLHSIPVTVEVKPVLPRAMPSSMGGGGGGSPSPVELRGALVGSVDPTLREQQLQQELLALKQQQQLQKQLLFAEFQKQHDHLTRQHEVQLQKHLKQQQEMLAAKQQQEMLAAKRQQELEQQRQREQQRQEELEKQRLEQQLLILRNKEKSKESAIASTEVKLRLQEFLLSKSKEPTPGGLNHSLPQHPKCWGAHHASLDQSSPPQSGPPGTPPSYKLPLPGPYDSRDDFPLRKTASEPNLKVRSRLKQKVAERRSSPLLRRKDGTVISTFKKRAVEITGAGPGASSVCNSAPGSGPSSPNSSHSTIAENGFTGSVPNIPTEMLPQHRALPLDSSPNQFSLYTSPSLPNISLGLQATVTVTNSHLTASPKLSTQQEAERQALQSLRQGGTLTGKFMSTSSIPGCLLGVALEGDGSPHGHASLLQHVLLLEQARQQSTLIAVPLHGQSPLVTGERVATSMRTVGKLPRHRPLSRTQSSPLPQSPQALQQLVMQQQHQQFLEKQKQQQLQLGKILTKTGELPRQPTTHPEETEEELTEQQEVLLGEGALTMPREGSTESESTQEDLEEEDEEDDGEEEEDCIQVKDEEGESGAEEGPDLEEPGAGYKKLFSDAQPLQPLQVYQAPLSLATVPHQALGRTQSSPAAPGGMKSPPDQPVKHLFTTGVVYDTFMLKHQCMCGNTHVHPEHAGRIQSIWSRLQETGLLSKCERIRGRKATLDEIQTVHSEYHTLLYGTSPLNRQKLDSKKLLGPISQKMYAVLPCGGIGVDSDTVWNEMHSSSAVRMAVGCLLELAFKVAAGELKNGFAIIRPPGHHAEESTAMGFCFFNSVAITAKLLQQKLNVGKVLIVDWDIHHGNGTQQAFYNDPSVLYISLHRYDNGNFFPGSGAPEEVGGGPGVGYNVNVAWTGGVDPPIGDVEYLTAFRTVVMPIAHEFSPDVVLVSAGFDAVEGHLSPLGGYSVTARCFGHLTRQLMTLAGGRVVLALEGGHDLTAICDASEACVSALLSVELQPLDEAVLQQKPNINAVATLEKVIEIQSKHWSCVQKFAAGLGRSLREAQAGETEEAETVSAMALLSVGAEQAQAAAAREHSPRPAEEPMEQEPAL

Sequence of Histone deacetylase (HDAC1 and HDAC2) (Homo sapiens) (Q13547 whole entry, looked up): as the sequence (Q13547 whole entry) above
Sequence of Histone deacetylase (HDAC1 and HDAC2) (Homo sapiens) (Q92769 whole entry, looked up): as the sequence (Q92769 whole entry) above

SMILES	Ratio IC50 (HeLa)	inhibition [1] [%]	IC50 [2] [nM]	IC50 [3] [nM]	other results
COc1ccc(C(=O)N2CCn3nc(C(=O)NO)cc3C2)cc1	120	< 20	810		
Cn1cc(C(=O)N2CCn3cc(C(=O)NO)cc3C2)c2ccccc21	6.3	< 20	190		
Cn1cccc1C(=O)NCc1ccc(C(=O)NO)cc1	115	< 20			
COc1ccc(C(=O)N2CCn3cc(C(=O)NO)cc3C2)cc1	130	< 20	43	100	
Cn1c(C(=O)N2CCn3cc(C(=O)NO)cc3C2)cc(Cl)c1Cl	100	< 20	33	150	
O=C(NO)c1cc2n(c1)CCN(C(=O)c1cccs1)C2	150	< 20	110		
Cn1cccc1C(=O)N1CCn2cc(C(=O)NO)nc2C1	770	< 20	130		
O=C(NO)c1cc2n(c1)CCN(C(=O)c1cc3ccccc3[nH]1)C2	24	< 20	280		
O=C(NO)c1cc2n(c1)CCN(C(=O)C1CCCCC1)C2	250	< 20	100	730	
Cn1cccc1C(=O)N1CCn2nc(C(=O)NO)cc2C1	220	< 20	350	2200	
Cn1ccc2cc(C(=O)N3CCn4cc(C(=O)NO)cc4C3)ccc21	35	< 20	85	140	
Cn1c(C(=O)N2CCn3nc(C(=O)NO)cc3C2)cc2ccccc21	66	< 20	76	3500	
O=C(NO)c1cc2n(c1)CCN(C(=O)c1cc3ccccc3s1)C2	14	< 20	39		
O=C(NO)c1cn2c(n1)CN(C(=O)c1ccc(-c3ccccc3)cc1)CC2	70	< 20	87	2100	
O=C(NO)c1cn2c(n1)CN(C(=O)c1cc3ccccc3s1)CC2	52	< 20	64		
O=C(NO)c1cc2n(c1)CCN(C(=O)c1ccc(-c3ccccc3)cc1)C2	44	< 20	32		
Cn1cccc1C(=O)N1CCc2cc(C(=O)NO)ccc2C1	500	< 20			
Cn1cccc1C(=O)N1CCn2cc(C(=O)NO)cc2C1		< 20	33	69	solubility [4]: > 200 µM; IC50 (Histone deacetylase 8): 3300 nM; Papp [5]: 4.2 ×10⁻⁶ cm/s; IC50 (Histone deacetylase 11): 29000 nM; IC50 [6]: 41000 nM; IC50 (Histone deacetylase 2): 39000 nM; IC50 (Histone deacetylase 4): > 50000 nM; IC50 (Histone deacetylase 1): 15000 nM; IC50 (Histone deacetylase 3): 8500 nM; IC50 (Histone deacetylase 5): 29000 nM

Reference: ChEMBL document CHEMBL3351349, “Histone deacetylase inhibitors derived from 1,2,3,4-tetrahydropyrrolo[1,2-a]pyrazine and related heterocycles selective for the HDAC6 isoform” (Bioorg Med Chem Lett, 2014)
